Reference: US9346817B2, “Dioxino- and oxazin-[2,3-D]pyrimidine PI3K inhibitor compounds and methods of use” (Genentech, Inc., priority 2012, dated 2016)

Experiments:
[1] = tested on: PC3 cells (prostate, PTEN mutation); experiment: In vitro cell proliferation assay (CellTiter-Glo), PC3; assay type: cell-based; conditions: Homo sapiens, PC-3; Cell line: PC3; Tissue type: prostate; Mutation Status: PTEN
Experimental: (§1) The cytotoxic or cytostatic activity of Formula I exemplary compounds was measured by: establishing a proliferating mammalian tumor cell line in a cell culture medium, adding a Formula I compound, culturing the cells for a period from about 6 hours to about 5 days; and measuring cell viability (Example 902). Cell-based in vitro assays were used to measure viability, i.e. proliferation (IC50), cytotoxicity (EC50), and induction of apoptosis (caspase activation).
(§2) The in vitro potency of Formula I exemplary compounds was measured by the cell proliferation assay, CellTiter-Glo® Luminescent Cell Viability Assay, commercially available from Promega Corp., Madison, Wis. (Example 902). This homogeneous assay method is based on the recombinant expression of Coleoptera luciferase (U.S. Pat. No. 5,583,024; U.S. Pat. No. 5,674,713; U.S. Pat. No. 5,700,670) and determines the number of viable cells in culture based on quantitation of the ATP present, an indicator of metabolically active cells (Crouch et al (1993) J. Immunol. Meth. 160:81-88; U.S. Pat. No. 6,602,677). The CellTiter-Glo® Assay was conducted in 96 or 384 well format, making it amenable to automated high-throughput screening (HTS) (Cree et al (1995) AntiCancer Drugs 6:398-404). The homogeneous assay procedure involves adding the single reagent (CellTiter-Glo® Reagent) directly to cells cultured in serum-supplemented medium. Cell washing, removal of medium and multiple pipetting steps are not required. The system detects as few as 15 cells/well in a 384-well format in 10 minutes after adding reagent and mixing.
(§3) The homogeneous “add-mix-measure” format results in cell lysis and generation of a luminescent signal proportional to the amount of ATP present. The amount of ATP is directly proportional to the number of cells present in culture. The CellTiter-Glo® Assay generates a “glow-type” luminescent signal, produced by the luciferase reaction, which has a half-life generally greater than five hours, depending on cell type and medium used. Viable cells are reflected in relative luminescence units (RLU). The substrate, Beetle Luciferin, is oxidatively decarboxylated by recombinant firefly luciferase with concomitant conversion of ATP to AMP and generation of photons. The extended half-life eliminates the need to use reagent injectors and provides flexibility for continuous or batch mode processing of multiple plates. This cell proliferation assay can be used with various multiwell formats, e.g. 96 or 384 well format. Data can be recorded by luminometer or CCD camera imaging device. The luminescence output is presented as relative light units (RLU), measured over time.
(§4) The anti-proliferative effects of Formula I exemplary compounds were measured by the CellTiter-Glo® Assay (Example 902) against several tumor cell lines. Potency EC50 values were established for the tested compounds. The range of in vitro cell potency activities was about 100 nM to about 10 μM.
(§5) Efficacy of Formula I compounds was measured by a cell proliferation assay employing the following protocol (Promega Corp. Technical Bulletin TB288; Mendoza et al (2002) Cancer Res. 62:5485-5488):
(§6) 1. An aliquot of 100 μl of cell culture containing about 10^4 cells (PC3 (prostate cancer), Detroit562 (pharynx carcinoma), or MDAMB361.1 (breast cancer) in medium was deposited in each well of a 384-well, opaque-walled plate.
(§7) 2. Control wells were prepared containing medium and without cells.
(§8) 3. The compound was added to the experimental wells and incubated for 3-5 days.
(§9) 4. The plates were equilibrated to room temperature for approximately 30 minutes.
(§10) 5. A volume of CellTiter-Glo® Reagent equal to the volume of cell culture medium present in each well was added.
(§11) 6. The contents were mixed for 2 minutes on an orbital shaker to induce cell lysis.
(§12) 7. The plate was incubated at room temperature for 10 minutes to stabilize the luminescence signal.
(§13) 8. Luminescence was recorded and reported in graphs as RLU=relative luminescence units. […]

[2] = tested on: MDA-MB-361.1 cells (breast, PI3K mutation); experiment: In vitro cell proliferation assay (CellTiter-Glo), MDA-MB-361.1; assay type: cell-based; conditions: Cell line: MDA-MB-361.1; Tissue type: breast; Mutation Status: PI3K
Experimental: as §1, §2, §3, §4, §5, §6, §7, §8, §9, §10, §11, §12, §13

[3] = Brain protein binding in rats; assay type: in vitro ADME; conditions: rat, read-out: Brain protein binding (mean bound %) (converted)
Experimental: Brain protein binding in rats was measured for Formula I exemplary compounds, including the following: […]

Compound	EC50 [1] [µM]	EC50 [2] [µM]	fraction unbound [3]
Nc1ncc(-c2nc3c(c(N4CCOCC4)n2)OCC2(CC2)O3)cn1 [Compound 106, 5-(4-morpholinospiro[6H-[1,4]dioxino[2,3-d]pyrimidine-7,1′-cyclopropane]-2-yl)pyrimidin-2-amine]	0.489	0.544	0.134
Nc1ncc(-c2nc3c(c(N4CCOCC4)n2)OC(C2CC2)CO3)cn1 (centres unmarked) [Compound 107, 5-(6-cyclopropyl-4-morpholino-6,7-dihydro-[1,4]dioxino[2,3-d]pyrimidin-2-yl)pyrimidin-2-amine]	1.2	0.961	–
CC(C)(C)C1COc2c(nc(-c3cnc(N)nc3)nc2N2CCOCC2)O1 (centres unmarked) [Compound 108, 5-(7-tert-butyl-4-morpholino-6,7-dihydro-[1,4]dioxino[2,3-d]pyrimidin-2-yl)pyrimidin-2-amine]	0.338	0.213	–
CC1COc2c(nc(-c3cnc(N)nc3)nc2N2CCOCC2)O1 (centres unmarked) [Compound 103, 5-(7-methyl-4-morpholino-6,7-dihydro-[1,4]dioxino[2,3-d]pyrimidin-2-yl)pyrimidin-2-amine]	0.606	0.63	–
Nc1ncc(-c2nc3c(c(N4CCOCC4)n2)OCC(C(F)(F)F)O3)cn1 (centres unmarked) [Compound 105, 5-[4-morpholino-7-(trifluoromethyl)-6,7-dihydro-[1,4]dioxino[2,3-d]pyrimidin-2-yl]pyrimidin-2-amine]	0.5	0.275	0.183
COc1ncc(-c2nc3c(c(N4CCOCC4)n2)OCC(C)(C)O3)cn1 [Compound 110, 2-(2-methoxypyrimidin-5-yl)-7,7-dimethyl-4-morpholino-6H-[1,4]dioxino[2,3-d]pyrimidine]	4.8	4.1	–
Nc1ncc(-c2nc3c(c(N4CCOCC4)n2)OCCO3)cn1 [Compound 101, 5-(4-morpholino-6,7-dihydro-[1,4]dioxino[2,3-d]pyrimidin-2-yl)pyrimidin-2-amine]	1	1.1	0.285
CC1(C)COc2c(nc(-c3cccc(NS(C)(=O)=O)c3)nc2N2CCOCC2)O1 [Compound 114, N-[3-(7,7-dimethyl-4-morpholino-6H-[1,4]dioxino[2,3-d]pyrimidin-2-yl)phenyl]methanesulfonamide]	> 10	> 7.5	–
C[C@@H]1COc2nc(-c3cnc(N)nc3)nc(N3CCOCC3)c2O1 [Compound 102, 5-[(6R)-6-methyl-4-morpholino-6,7-dihydro-[1,4]dioxino[2,3-d]pyrimidin-2-yl]pyrimidin-2-amine]	0.557	0.37	0.2
CC1(C)COc2c(nc(-c3ccc4[nH]ccc4c3)nc2N2CCOCC2)O1 [Compound 115, 2-(1H-indol-5-yl)-7,7-dimethyl-4-morpholino-6H-[1,4]dioxino[2,3-d]pyrimidine]	2.3	1.8	–
CC1(C)COc2c(nc(-c3ccc(N)nc3)nc2N2CCOCC2)O1 [Compound 111, 5-(7,7-dimethyl-4-morpholino-6H-[1,4]dioxino[2,3-d]pyrimidin-2-yl)pyridin-2-amine]	0.48	0.545	–
CC1(C)COc2c(nc(-c3cccc(O)c3)nc2N2CCOCC2)O1 [Compound 109, 3-(7,7-dimethyl-4-morpholino-6H-[1,4]dioxino[2,3-d]pyrimidin-2-yl)phenol]	0.182	0.445	–
CN1CCOc2c1nc(-c1cnc(N)nc1)nc2N1CCOCC1 [Compound 119, 5-(8-methyl-4-morpholino-7,8-dihydro-6H-pyrimido[5,4-b][1,4]oxazin-2-yl)pyrimidin-2-amine]	3.1	2.6	–
Nc1ncc(-c2nc3c(c(N4CCOCC4)n2)OCC(CO)O3)cn1 (centres unmarked) [Compound 117, [2-(2-aminopyrimidin-5-yl)-4-morpholino-6,7-dihydro-[1,4]dioxino[2,3-d]pyrimidin-7-yl]methanol]	0.759	0.669	–
CC1(C)COc2c(nc(-c3cnc(N)nc3)nc2N2CCOCC2)O1 [Compound 104, 5-(7,7-dimethyl-4-morpholino-6H-[1,4]dioxino[2,3-d]pyrimidin-2-yl)pyrimidin-2-amine]	0.406	0.577	–
Nc1ncc(-c2nc3c(c(N4CCOCC4)n2)OCC(CF)O3)cn1 (centres unmarked) [Compound 116, 5-[7-(fluoromethyl)-4-morpholino-6,7-dihydro-[1,4]dioxino[2,3-d]pyrimidin-2-yl]pyrimidin-2-amine]	0.76	0.73	0.17
CC(=O)Nc1ccc(-c2nc3c(c(N4CCOCC4)n2)OCC(C)(C)O3)cc1 [Compound 112, N-[4-(7,7-dimethyl-4-morpholino-6H-[1,4]dioxino[2,3-d]pyrimidin-2-yl)phenyl]acetamide]	2.1	1.8	–
CN1C(=O)COc2c(N3CCOCC3)nc(-c3cnc(N)nc3)nc21 [Compound 120, 2-(2-aminopyrimidin-5-yl)-8-methyl-4-morpholino-6H-pyrimido[5,4-b][1,4]oxazin-7(8H)-one]	0.589	0.57	0.16
CNc1ccc(-c2nc3c(c(N4CCOCC4)n2)OCC(C)(C)O3)cn1 [Compound 113, 5-(7,7-dimethyl-4-morpholino-6H-[1,4]dioxino[2,3-d]pyrimidin-2-yl)-N-methyl-pyridin-2-amine]	2.1	2	–
